Data as given in US10039756B2, “Reducing memory loss in mammals suffering from alzheimer's disease” (The Penn State Research Foundation, priority 2013, dated 2018).

Tests used:
[1] = biological target: T1, neuronal GABA transporters (Mus musculus, UniProt P31648); experiment: Tonic current induced by blockade of neuronal GABA transporters in dentate granule cells; assay type: cell-based; details: P>0.4
T1 construct: from tissue; host or cells: mouse hippocampal slices, dentate granule cells
Experimental: FIG. 7, panel a, contains typical traces showing tonic current induced by blockade of neuronal GABA transporters with NO-711 (1-[2-[[(Diphenylmethylene)imino]oxy]ethyl]-1,2,5,6-tetrahydro-3-pyridinecarboxylic acid hydrochloride hydrochloride). Large mIPSCs were truncated to better illustrate the tonic current.
(§1) Mice were anesthetized with 2.5% Avertin. After decapitation, brains were rapidly dissected out and placed in ice-cold cutting solution containing: 79 mM NaCl, 80 mM sucrose, 26 mM NaHCO3, 10 mM glucose, 2.5 mM KCl, 1.25 mM NaH2PO4, 7 mM MgSO4, and 0.5 mM CaCl2 for tonic current recordings. […]
(§2) Whole-cell voltage clamp recordings were performed on dentate gyrus granule cells using a pipette solution containing: 135 mM CsCl, 5 mM Na-phosphocreatine, 10 mM HEPES, 5 mM EGTA, 4 mM MgATP, 5 mM QX-314, and 0.5 mM Na2GTP (pH 7.3 adjusted with CsOH, 280-290 mOsm/L). […] Data was acquired using pClamp 9 software (Molecular Devices; sampled at 10 kHz and filtered at 1 kHz), and analyzed with Clampfit 9.0 software (Molecular Devices). Field excitatory postsynaptic potentials (fEPSPs) were recorded with glass electrodes filled with 1 M NaCl and 25 mM HEPES (pH 7.3), and were evoked every 20 seconds with a parallel bipolar tungsten electrode (MicroProbes, USA), which was placed at medial perforant path in the dentate gyrus. […]

α5-GABAA-Rs = biological target: T2, α5-GABAA-Rs (Mus musculus, UniProt P22723+Q8BHJ7); experiment: Tonic current mediated by α5-GABAA-Rs, whole-cell patch clamp in hippocampal slices; assay type: cell-based
T2 construct: from tissue; host or cells: mouse hippocampal slices; dentate granule cells and CA1 pyramidal neurons
Experimental: Mice were anesthetized with 2.5% Avertin. After decapitation, brains were rapidly dissected out and placed in ice-cold cutting solution containing: 79 mM NaCl, 80 mM sucrose, 26 mM NaHCO3, 10 mM glucose, 2.5 mM KCl, 1.25 mM NaH2PO4, 7 mM MgSO4, and 0.5 mM CaCl2 for tonic current recordings. The cutting solution for field EPSP recordings contained: 230 mM sucrose, 26 mM NaHCO3, 20 mM glucose, 2.5 mM KCl, 1.25 mM NaH2PO4, 10 mM MgSO4, and 0.5 mM CaCl2. Both solutions were bubbled with 95% O2/5% CO2. Hippocampal slices were cut at 350 μm with a vibratome (VT1200S, Leica, Germany) and transferred to a transitional chamber containing one half of cutting solution and one half of standard artificial cerebrospinal fluid (ACSF). The ACSF was composed of: 125.0 mM NaCl, 2.5 mM KCl, 1.3 mM MgSO4, 26.0 mM NaHCO3, 1.25 mM NaH2PO4, 2.0 mM CaCl2, and mM 10 glucose (290-300 mOsmol; gassed with 95% O2/5% CO2, pH ˜7.4). Slices were then incubated in ACSF at 32° C. for 30 minutes to recover. Subsequently, slices were maintained at room temperature for another 30 minutes before recording. Individual slices were then transferred to a submerged recording chamber where they were continuously perfused (2-3 mL/minute) with ACSF saturated by 95% O2/5% CO2 at 32° C.
Whole-cell voltage clamp recordings were performed on dentate gyrus granule cells using a pipette solution containing: 135 mM CsCl, 5 mM Na-phosphocreatine, 10 mM HEPES, 5 mM EGTA, 4 mM MgATP, 5 mM QX-314, and 0.5 mM Na2GTP (pH 7.3 adjusted with CsOH, 280-290 mOsm/L). Pipette resistance was 2-5 MΩ, and series resistance was typically 20-40 MΩ. To record tonic GABA current, 10 μM CNQX and 50 μM DL-APV were added into the ACSF to block glutamate receptors. In some experiments, 5 μM GABA also was added into the ACSF to reveal larger tonic GABA current and increase the signal-to-noise ratio. […] The membrane potential was held at −70 mV. Data was acquired using pClamp 9 software (Molecular Devices; sampled at 10 kHz and filtered at 1 kHz), and analyzed with Clampfit 9.0 software (Molecular Devices). Field excitatory postsynaptic potentials (fEPSPs) were recorded with glass electrodes filled with 1 M NaCl and 25 mM HEPES (pH 7.3), and were evoked every 20 seconds with a parallel bipolar tungsten electrode (MicroProbes, USA), which was placed at medial perforant path in the dentate gyrus. Three evoked responses were averaged to obtain a data point. […]
The following was performed to investigate which subtype of GABAA-Rs mediate the enhanced tonic GABA current in AD dentate granule cells. […] Quantitatively, the tonic current blocked by L-655,708 in AD dentate granule cells was more than doubled that in WT animals (FIG. 5, panel e; WT, 35.4±6.3 pA, n=12; AD, 98.7±12.9 pA, n=9; p<0.001). […]

LTP in DG = experiment: Long-term potentiation (LTP) in dentate gyrus, hippocampal slice field EPSP recordings; assay type: cell-based, mouse; details: 100 nM; 5xFAD dentate granule cells
Experimental: as §1, with “recordings. The cutting solution for field EPSP recordings contained: 230 mM sucrose, 26 mM NaHCO3, 20 mM glucose, 2.5 mM KCl, 1.25 mM NaH2PO4, 10 mM MgSO4, and 0.5 mM CaCl2. Both solutions were bubbled with 95% O2/5% CO2.” for “recordings.”
as §2

5xFAD mice = experiment: Y-maze spontaneous alternation task; assay type: in vivo, mouse; details: 1 mg kg-1, i.p., once per day for one week, p<0.05
Experimental: L-655,708 was dissolved at 1 mg/mL in DMSO, and frozen in storage aliquots. The working solution was diluted 10 times in normal saline solution. […] The last injection was administrated 30 minutes before behavioral test.
Spontaneous alternation performance was tested as described elsewhere (Oakley et al., J. Neurosci., 26(40):10129-10140 (2006)). […] It allows the assessment of hippocampus-dependent spatial working memory. Each mouse was placed in the center of a symmetrical Y-maze and was allowed to explore freely through the maze during an 8 minute session. The first two minutes were not included for data analysis because mice were exploring new environment. The total number and the sequence of arm entries in the last 6 minutes were recorded and analyzed. Arm entry was defined as the hind paws of the mice had been completely placed in the arm. Analysis was done blind. The percentage of alternation is the number of triads containing entries into all three arms divided by the maximum possible alternations (the total number of arms entered minus 2)×100.
A behavioral analysis was conducted to test the effect of enhanced tonic inhibition on the cognitive function of 5xFAD animals. […] Therefore, it was concluded that the abnormal tonic inhibition in DG is an important contributing factor toward the learning and memory deficit in AD.

δ-GABAA-Rs = biological target: T3, δ-GABAA-Rs (Mus musculus, UniProt P22933+P63137+Q9D6F4); experiment: THIP-induced tonic current in dentate granule cells of hippocampal slices; assay type: cell-based; details: 2 μM, n=8
T3 construct: from tissue; host or cells: mouse hippocampal slices, dentate granule cells
Experimental: as §1, with “recordings. The cutting solution for field EPSP recordings contained: 230 mM sucrose, 26 mM NaHCO3, 20 mM glucose, 2.5 mM KCl, 1.25 mM NaH2PO4, 10 mM MgSO4, and 0.5 mM CaCl2. Both solutions were bubbled with 95% O2/5% CO2.” for “recordings.”
as §2

human GAT-3 polypeptide = biological target: T4, human GAT-3 polypeptide (Homo sapiens, UniProt P48066); details: cited from earlier work
T4 sequence (P48066 1-632): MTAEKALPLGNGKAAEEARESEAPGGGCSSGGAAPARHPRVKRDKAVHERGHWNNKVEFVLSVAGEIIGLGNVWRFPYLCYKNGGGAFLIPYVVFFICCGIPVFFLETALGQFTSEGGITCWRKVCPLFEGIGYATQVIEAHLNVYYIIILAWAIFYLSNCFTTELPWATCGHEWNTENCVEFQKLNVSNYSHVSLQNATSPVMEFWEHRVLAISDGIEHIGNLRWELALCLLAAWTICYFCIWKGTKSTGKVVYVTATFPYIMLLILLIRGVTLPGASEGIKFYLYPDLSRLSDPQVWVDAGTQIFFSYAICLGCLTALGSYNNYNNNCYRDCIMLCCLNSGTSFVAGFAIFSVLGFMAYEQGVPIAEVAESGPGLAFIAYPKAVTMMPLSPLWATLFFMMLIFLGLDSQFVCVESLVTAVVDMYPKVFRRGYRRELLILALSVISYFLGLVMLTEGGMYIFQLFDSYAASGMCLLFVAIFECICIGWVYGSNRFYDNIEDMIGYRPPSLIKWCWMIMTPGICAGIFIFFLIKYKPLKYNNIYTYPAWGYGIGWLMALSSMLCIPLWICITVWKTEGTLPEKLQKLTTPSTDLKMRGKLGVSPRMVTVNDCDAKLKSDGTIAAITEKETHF

human GAT-1 polypeptide = human GAT-1 polypeptide (Homo sapiens, UniProt P30531); details: cited from earlier work
human GAT-2 polypeptide = biological target: T5, human GAT-2 polypeptide (Homo sapiens, UniProt Q9NSD5); details: cited from earlier work
T5 sequence (Q9NSD5 1-602): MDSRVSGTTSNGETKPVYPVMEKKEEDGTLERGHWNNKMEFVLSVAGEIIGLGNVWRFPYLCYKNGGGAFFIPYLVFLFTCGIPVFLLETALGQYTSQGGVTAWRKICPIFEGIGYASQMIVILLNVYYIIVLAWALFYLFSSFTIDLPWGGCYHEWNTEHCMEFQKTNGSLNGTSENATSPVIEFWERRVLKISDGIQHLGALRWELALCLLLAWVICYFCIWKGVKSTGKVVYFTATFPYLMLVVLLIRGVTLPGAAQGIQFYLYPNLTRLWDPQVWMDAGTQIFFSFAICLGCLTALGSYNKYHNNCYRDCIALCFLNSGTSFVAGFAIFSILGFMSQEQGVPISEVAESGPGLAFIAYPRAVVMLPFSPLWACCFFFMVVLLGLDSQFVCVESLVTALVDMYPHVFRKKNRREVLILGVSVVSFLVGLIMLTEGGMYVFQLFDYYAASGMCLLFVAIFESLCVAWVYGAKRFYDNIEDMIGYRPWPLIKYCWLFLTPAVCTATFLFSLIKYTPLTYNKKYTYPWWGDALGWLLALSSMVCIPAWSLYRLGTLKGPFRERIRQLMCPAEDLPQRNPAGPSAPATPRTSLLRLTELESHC

T2 sequence (P63080 26-473): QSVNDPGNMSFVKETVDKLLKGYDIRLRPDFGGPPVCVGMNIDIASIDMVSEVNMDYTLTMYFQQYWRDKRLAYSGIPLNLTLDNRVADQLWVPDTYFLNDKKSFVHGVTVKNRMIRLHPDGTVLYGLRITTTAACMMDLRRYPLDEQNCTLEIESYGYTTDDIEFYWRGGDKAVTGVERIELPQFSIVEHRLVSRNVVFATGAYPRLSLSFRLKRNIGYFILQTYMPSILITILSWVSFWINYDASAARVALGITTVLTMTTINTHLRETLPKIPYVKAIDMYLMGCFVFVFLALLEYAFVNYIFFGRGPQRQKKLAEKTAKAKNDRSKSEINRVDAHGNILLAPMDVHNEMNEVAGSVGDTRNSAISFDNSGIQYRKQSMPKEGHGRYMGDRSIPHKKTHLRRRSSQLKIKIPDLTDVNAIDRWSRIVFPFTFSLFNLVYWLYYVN
T2 sequence (Q8BHJ7 32-463): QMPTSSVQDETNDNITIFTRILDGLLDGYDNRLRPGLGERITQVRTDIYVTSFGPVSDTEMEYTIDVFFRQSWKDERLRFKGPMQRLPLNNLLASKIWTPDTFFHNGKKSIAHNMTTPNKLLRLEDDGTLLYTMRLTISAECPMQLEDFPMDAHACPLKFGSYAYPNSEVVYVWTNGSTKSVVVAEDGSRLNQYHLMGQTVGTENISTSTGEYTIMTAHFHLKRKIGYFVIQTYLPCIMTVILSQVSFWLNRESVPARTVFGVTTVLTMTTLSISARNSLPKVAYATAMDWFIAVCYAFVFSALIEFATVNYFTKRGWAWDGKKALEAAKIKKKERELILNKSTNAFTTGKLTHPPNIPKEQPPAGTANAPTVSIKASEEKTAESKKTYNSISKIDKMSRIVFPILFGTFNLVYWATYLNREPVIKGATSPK
T2 sequence (P22723 39-474): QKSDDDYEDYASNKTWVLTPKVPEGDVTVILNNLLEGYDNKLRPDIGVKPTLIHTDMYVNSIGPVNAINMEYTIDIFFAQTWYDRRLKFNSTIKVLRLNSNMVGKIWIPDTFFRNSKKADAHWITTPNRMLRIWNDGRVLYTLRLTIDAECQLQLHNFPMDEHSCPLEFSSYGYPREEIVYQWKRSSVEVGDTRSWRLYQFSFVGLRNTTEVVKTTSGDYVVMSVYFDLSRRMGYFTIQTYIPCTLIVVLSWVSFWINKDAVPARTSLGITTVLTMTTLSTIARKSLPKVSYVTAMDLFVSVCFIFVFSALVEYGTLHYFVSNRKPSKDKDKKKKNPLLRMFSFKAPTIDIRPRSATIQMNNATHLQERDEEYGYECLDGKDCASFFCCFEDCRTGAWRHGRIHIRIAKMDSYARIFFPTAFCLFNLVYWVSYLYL
T3 sequence (P22933 17-449 limits assumed): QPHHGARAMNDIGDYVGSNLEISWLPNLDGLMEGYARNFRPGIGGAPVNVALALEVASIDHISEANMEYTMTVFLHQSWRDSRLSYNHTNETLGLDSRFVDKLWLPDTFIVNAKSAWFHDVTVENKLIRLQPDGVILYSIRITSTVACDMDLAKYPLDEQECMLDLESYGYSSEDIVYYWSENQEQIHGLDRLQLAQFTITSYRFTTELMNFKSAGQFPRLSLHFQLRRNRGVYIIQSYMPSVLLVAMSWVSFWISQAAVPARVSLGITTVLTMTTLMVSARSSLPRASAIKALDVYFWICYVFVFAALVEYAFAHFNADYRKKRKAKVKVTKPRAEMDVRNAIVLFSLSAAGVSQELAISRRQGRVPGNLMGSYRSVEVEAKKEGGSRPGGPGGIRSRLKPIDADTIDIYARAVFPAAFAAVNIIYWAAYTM
T3 sequence (Q9D6F4 36-552): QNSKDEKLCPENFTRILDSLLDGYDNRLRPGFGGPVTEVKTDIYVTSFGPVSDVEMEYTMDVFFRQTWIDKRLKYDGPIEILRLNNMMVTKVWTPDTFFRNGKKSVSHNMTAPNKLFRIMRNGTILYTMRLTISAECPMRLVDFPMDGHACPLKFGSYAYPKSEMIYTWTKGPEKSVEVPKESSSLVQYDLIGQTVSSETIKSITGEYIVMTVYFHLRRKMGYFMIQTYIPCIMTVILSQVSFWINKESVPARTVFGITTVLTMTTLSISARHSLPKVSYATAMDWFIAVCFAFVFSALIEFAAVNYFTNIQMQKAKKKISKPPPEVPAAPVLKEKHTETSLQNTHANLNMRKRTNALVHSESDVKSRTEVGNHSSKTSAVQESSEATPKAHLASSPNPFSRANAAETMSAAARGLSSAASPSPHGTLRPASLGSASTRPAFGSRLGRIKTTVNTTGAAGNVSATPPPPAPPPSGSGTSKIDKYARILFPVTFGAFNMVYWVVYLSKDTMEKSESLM
T3 sequence (P63137 25-474 limits assumed): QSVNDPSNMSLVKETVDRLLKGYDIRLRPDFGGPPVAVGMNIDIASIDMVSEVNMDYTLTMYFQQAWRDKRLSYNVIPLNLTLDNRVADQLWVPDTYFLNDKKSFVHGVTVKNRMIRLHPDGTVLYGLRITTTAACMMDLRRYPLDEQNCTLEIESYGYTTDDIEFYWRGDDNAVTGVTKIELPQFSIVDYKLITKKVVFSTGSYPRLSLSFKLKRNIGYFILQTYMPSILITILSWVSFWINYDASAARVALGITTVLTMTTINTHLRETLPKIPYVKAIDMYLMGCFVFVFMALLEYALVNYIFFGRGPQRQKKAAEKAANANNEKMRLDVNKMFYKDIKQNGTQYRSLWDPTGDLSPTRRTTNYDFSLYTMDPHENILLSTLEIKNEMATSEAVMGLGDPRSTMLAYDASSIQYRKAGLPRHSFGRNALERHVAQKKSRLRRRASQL
Sequence of human GAT-1 polypeptide (P30531 whole entry): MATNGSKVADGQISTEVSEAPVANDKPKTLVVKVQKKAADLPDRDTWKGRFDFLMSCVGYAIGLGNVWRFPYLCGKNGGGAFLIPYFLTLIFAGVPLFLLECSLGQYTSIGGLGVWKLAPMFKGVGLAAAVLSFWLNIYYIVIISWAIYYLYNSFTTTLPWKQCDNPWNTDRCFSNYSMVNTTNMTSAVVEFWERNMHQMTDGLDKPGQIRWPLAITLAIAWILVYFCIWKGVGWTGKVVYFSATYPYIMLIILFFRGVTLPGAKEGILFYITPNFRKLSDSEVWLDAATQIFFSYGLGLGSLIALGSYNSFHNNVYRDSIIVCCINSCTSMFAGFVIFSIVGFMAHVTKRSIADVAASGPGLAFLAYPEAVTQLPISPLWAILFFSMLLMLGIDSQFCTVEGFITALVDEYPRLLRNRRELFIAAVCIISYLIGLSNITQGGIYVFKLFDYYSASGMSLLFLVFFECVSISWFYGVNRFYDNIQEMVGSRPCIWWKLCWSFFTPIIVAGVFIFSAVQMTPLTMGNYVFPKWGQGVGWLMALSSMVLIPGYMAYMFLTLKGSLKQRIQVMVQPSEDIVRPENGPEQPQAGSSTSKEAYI

For `Cl.O=C(O)C1=CCCN(CCON=C(c2ccccc2)c2ccccc2)C1` [NO-711, 1-[2-[[(Diphenylmethylene)imino]oxy]ethyl]-1,2,5,6-tetrahydro-3-pyridinecarboxylic acid hydrochloride hydrochloride], the “tonic currents revealed by NO-711, WT vs. 5xFAD” value [1] was “no difference”.

For `CCOC(=O)c1ncn2c1C1CCCN1C(=O)c1cc(OC)ccc1-2` [L-655,708, 11,12,13,13a-tetrahydro-7-methoxy-9-oxo-9H-imidazo[1,5-a]pyrrolo[2,1-c][1,4]benzodiaz-epine-1-carboxylic acid, ethyl ester], the “block of tonic current” value (α5-GABAA-Rs; 100 nM, AD (5xFAD) dentate granule cells) was “majority of tonic current in AD dentate granule cells was blocked”, the “tonic current blocked by L-655,708” value (α5-GABAA-Rs; AD (5xFAD) dentate granule cells, n=9) was 98.7±12.9 pA and the “proportion of tonic current blocked, WT vs AD” value (α5-GABAA-Rs; CA1 neurons) was “similar”. For the same compound, the “tonic current blocked by L-655,708” value (α5-GABAA-Rs; WT dentate granule cells, n=12) was 35.4±6.3 pA, the “effect on LTP impairment” value (LTP in DG) was “rescued the LTP impairment” and the “effect on memory deficit (spontaneous alternation)” value (5xFAD mice) was “rescued the memory deficit”.

For `Oc1noc2c1CCNC2` [THIP, 4,5,6,7-tetrahydroisoxazolo[5,4-c]pyridin-3-ol], the THIP-induced tonic current (δ-GABAA-Rs; AD (5xFAD) dentate granule cells) was 60.7±10.4 pA and the THIP-induced tonic current (δ-GABAA-Rs; WT dentate granule cells) was 65.2±6.6 pA.

In the case of `COc1ccc(C2(O)CCN(CCCn3c4ccccc4c4ccccc43)CC2)cc1` [NNC 05-2045, 1-(3-(9H-carbazol-9-yl)-1-propyl)-4-(4-methoxyphenyl)-4-piperidinol], the Ki (human GAT-3 polypeptide) is listed as less than 10 µM, the Ki (human GAT-1 polypeptide) is listed as greater than 20 µM and the Ki (human GAT-2 polypeptide) is listed as greater than 10 µM.
